Test results taken from ChEMBL document CHEMBL1649187, “New plasmid-mediated quinolone resistance gene, qnrC, found in a clinical isolate of Proteus mirabilis” (2009).
Converted amounts (≈) assume the structure as drawn.

Assays:
Format in all cases: functional
Escherichia coli [1] = test: Antimicrobial activity against Escherichia coli J53 transconjugated with Proteus mirabilis pHS10 carrying qnrC gene by CLSI agar dilution method
Proteus mirabilis [2] = test: Antimicrobial activity against Proteus mirabilis 06-489 isolated from infected human urinary tract by CLSI agar dilution method
Escherichia coli [3] = test: Antimicrobial activity against Escherichia coli J53 by CLSI agar dilution method
Proteus mirabilis [4] = test: Antimicrobial activity against Proteus mirabilis 06-489 isolated from infected human urinary tract by Etest; settings: 06-489, Urine
Escherichia coli [5] = test: Antimicrobial activity against Escherichia coli J53 transconjugated with Proteus mirabilis pHS10 carrying qnrC gene by Etest
Escherichia coli [6] = test: Antimicrobial activity against Escherichia coli J53 by Etest
Escherichia coli [7] = test: Antimicrobial activity against Escherichia coli TOP10 harboring pHS12 carrying ATT to ATG substituted qnrC gene by CLSI agar dilution method
Escherichia coli [8] = test: Antimicrobial activity against Escherichia coli TOP10 harboring pHS12 carrying TTG to TTA substituted qnrC gene by CLSI agar dilution method
Escherichia coli [9] = test: Antimicrobial activity against Escherichia coli TOP10 harboring pHS12 carrying qnrC gene by CLSI agar dilution method
Escherichia coli [10] = test: Antimicrobial activity against Escherichia coli TOP10 harboring pHS12 carrying ATT to TTA substituted qnrC gene by CLSI agar dilution method
Escherichia coli [11] = test: Antimicrobial activity against Escherichia coli TOP10 harboring pHS12 carrying TTG to ATG substituted qnrC gene by CLSI agar dilution method
Escherichia coli [12] = test: Antimicrobial activity against Escherichia coli TOP10 harboring pHS12 carrying ATG to ACG substituted qnrC gene by CLSI agar dilution method
Escherichia coli [13] = test: Antimicrobial activity against Escherichia coli ATCC 25922 by CLSI agar dilution method
Escherichia coli [14] = test: Antimicrobial activity against Escherichia coli TOP10 harboring pHS12 carrying TTG to TCG substituted qnrC gene by CLSI agar dilution method

Molecule | MIC (Escherichia coli [1]) | MIC (Proteus mirabilis [2]; 06-489, Urine) | MIC (Escherichia coli [3]) | also measured
NCC[C@H](O)C(=O)N[C@@H]1C[C@H](N)[C@@H](O[C@H]2O[C@H](CN)[C@@H](O)[C@H](O)[C@H]2O)[C@H](O)[C@H]1O[C@H]1O[C@H](CO)[C@@H](O)[C@H](N)[C@H]1O [AMIKACIN] | 0.5 µg/mL (≈ 0.854 µM) | 8 µg/mL (≈ 13.7 µM) | 0.25 µg/mL (≈ 0.427 µM) | 
CC1(C)S[C@@H]2[C@H](NC(=O)[C@H](N)c3ccccc3)C(=O)N2[C@H]1C(=O)O [AMPICILLIN] | 128 µg/mL (≈ 366 µM) | 64 µg/mL (≈ 183 µM) | 4 µg/mL (≈ 11.4 µM) | 
CO/N=C(\C(=O)N[C@@H]1C(=O)N2C(C(=O)O)=C(COC(C)=O)CS[C@H]12)c1csc(N)n1 [CEFOTAXIME] | ≤ 0.06 µg/mL | ≤ 0.06 µg/mL | ≤ 0.06 µg/mL | 
CO[C@@]1(NC(=O)Cc2cccs2)C(=O)N2C(C(=O)O)=C(COC(N)=O)CS[C@@H]21 [CEFOXITIN] | 4 µg/mL (≈ 9.36 µM) | 2 µg/mL (≈ 4.68 µM) | 4 µg/mL (≈ 9.36 µM) | 
CC(C)(O/N=C(\C(=O)N[C@@H]1C(=O)N2C(C(=O)[O-])=C(C[n+]3ccccc3)CS[C@H]12)c1csc(N)n1)C(=O)O [CEFTAZIDIME] | 0.06 µg/mL (≈ 0.11 µM) | ≤ 0.06 µg/mL | ≤ 0.06 µg/mL | 
CO/N=C(\C(=O)N[C@@H]1C(=O)N2C(C(=O)O)=C(COC(N)=O)CS[C@H]12)c1ccco1 [CEFUROXIME] | 8 µg/mL (≈ 18.9 µM) | 4 µg/mL (≈ 9.43 µM) | 8 µg/mL (≈ 18.9 µM) | 
O=C(N[C@H](CO)[C@H](O)c1ccc([N+](=O)[O-])cc1)C(Cl)Cl [CHLORAMPHENICOL] | 64 µg/mL (≈ 198 µM) | 16 µg/mL (≈ 49.5 µM) | 8 µg/mL (≈ 24.8 µM) | 
O=C(O)c1cn(C2CC2)c2cc(N3CCNCC3)c(F)cc2c1=O [CIPROFLOXACIN] |  |  |  | MIC (Proteus mirabilis [4]): 0.25 µg/mL (≈ 0.754 µM)
C[C@H]1COc2c(N3CCN(C)CC3)c(F)cc3c(=O)c(C(=O)O)cn1c23.C[C@H]1COc2c(N3CCN(C)CC3)c(F)cc3c(=O)c(C(=O)O)cn1c23.O [LEVOFLOXACIN] |  |  |  | MIC (Escherichia coli [5]): 0.25 µg/mL; MIC (Escherichia coli [6]): 0.023 µg/mL; MIC (Escherichia coli [7]): 0.125 µg/mL; MIC (Escherichia coli [8]): 0.006 µg/mL; MIC (Proteus mirabilis [4]): 0.5 µg/mL; MIC (Escherichia coli [9]): 0.19 µg/mL; MIC (Escherichia coli [10]): 0.125 µg/mL; MIC (Escherichia coli [11]): 0.19 µg/mL; MIC (Escherichia coli [12]): 0.19 µg/mL; MIC (Escherichia coli [13]): 0.006 µg/mL
CCn1cc(C(=O)O)c(=O)c2ccc(C)nc21 [NALIDIXIC ACID] |  |  |  | MIC (Escherichia coli [5]): 16 µg/mL (≈ 68.9 µM); MIC (Escherichia coli [6]): 4 µg/mL (≈ 17.2 µM); MIC (Escherichia coli [7]): 4 µg/mL (≈ 17.2 µM); MIC (Escherichia coli [8]): 1 µg/mL (≈ 4.31 µM); MIC (Escherichia coli [14]): 1.5 µg/mL (≈ 6.46 µM); MIC (Proteus mirabilis [4]): 16 µg/mL (≈ 68.9 µM); MIC (Escherichia coli [9]): 4 µg/mL (≈ 17.2 µM); MIC (Escherichia coli [10]): 3 µg/mL (≈ 12.9 µM); MIC (Escherichia coli [11]): 4 µg/mL (≈ 17.2 µM); MIC (Escherichia coli [12]): 4 µg/mL (≈ 17.2 µM); MIC (Escherichia coli [13]): 1 µg/mL (≈ 4.31 µM)
Cc1cc(NS(=O)(=O)c2ccc(N)cc2)no1 [SULFAMETHOXAZOLE] | > 1020 µg/mL | > 1020 µg/mL | 16 µg/mL (≈ 63.2 µM) | 
CN(C)[C@@H]1C(O)=C(C(N)=O)C(=O)[C@@]2(O)C(O)=C3C(=O)c4c(O)cccc4[C@@](C)(O)[C@H]3C[C@@H]12 [TETRACYCLINE] | 128 µg/mL (≈ 288 µM) | 128 µg/mL (≈ 288 µM) | 1 µg/mL (≈ 2.25 µM) | 
COc1cc(Cc2cnc(N)nc2N)cc(OC)c1OC [TRIMETHOPRIM] | > 128 µg/mL | > 128 µg/mL | 0.25 µg/mL (≈ 0.861 µM) | 
GENTAMICIN | 4 µg/mL |  | 0.125 µg/mL | MIC (Proteus mirabilis [2]; Urine): 16 µg/mL
